Results: patent publication US7968097B2, “Identification of Hla-A2-presented T-cell epitopes derived from the oncofoetal antigen-immature laminin receptor protein and uses thereof” (Immatics Biotechnologies GmbH, priority 2005, dated 2011)
Entries after “also recorded” stand apart in the source; their conditions may differ.

Test system: PBMC of HLA-A*02 positive healthy donors
Assay: IFN-γ ELISPOT, healthy donors
Conditions: peripheral blood samples of healthy donors, IFN-γ ELISPOT
Protocol: To determine the frequency of OFA/iLR peptide-specific T cells in patients, ELISPOT-assays were performed using the Interferon-γ-ELISPOT-Kit (Becton Dickinson, Heidelberg, Germany) according to manufacturer's instructions.
Prior to analysis, T cells from patients and healthy donors had been kept in culture for seven days in the presence of Interleukin-2 (IL microgram/10^6 PBMC/milliliter).

Sequence | CTL / spontaneous T cell responses against peptide in healthy individuals
ALCNTDSPL (listed as Homo sapiens) [ILR2] | no spontaneous T cell responses; also recorded: low numbers of CTL
LLAARAIVAI (listed as Homo sapiens) [ILR1] | no spontaneous T cell responses; also recorded: low numbers of CTL
